Source: patent publication US5688666A, “Growth hormone variants with altered binding properties” (Genentech, Inc., priority 1994, dated 1997)

Columns and labels:
[1] = molecular target: Mab 1 (monoclonal antibody to hGH); assay: Binding of Mab 1 to hGH and hGH phagemid particles (ELISA); conditions: read-out: IC50 (concentration to give half-maximal binding to the Mab)
Description: (§1) After 2 hours at room temperature (rt), the plates were washed well and the indicated Mab (Cunningham et al. supra) was added at 1 μg/ml in buffer A for 2 hours at rt. Following washing, horseradish peroxidase conjugated goat anti-mouse IgG antibody was bound at rt for 1 hour. After a final wash, the peroxidase activity was assayed with the substrate, o-phenylenediamine.

[2] = molecular target: Mab 2 (monoclonal antibody to hGH); assay: Binding of Mab 2 to hGH and hGH phagemid particles (ELISA); conditions: read-out: IC50 (concentration to give half-maximal binding to the Mab)
Description: as §1

[3] = molecular target: Mab 3 (monoclonal antibody to hGH); assay: Binding of Mab 3 to hGH and hGH phagemid particles (ELISA); conditions: read-out: IC50 (concentration to give half-maximal binding to the Mab)
Description: as §1

[4] = molecular target: Mab 4 (monoclonal antibody to hGH); assay: Binding of Mab 4 to hGH and hGH phagemid particles (ELISA); conditions: read-out: IC50 (concentration to give half-maximal binding to the Mab)
Description: as §1

[5] = molecular target: Mab 5 (monoclonal antibody to hGH); assay: Binding of Mab 5 to hGH and hGH phagemid particles (ELISA); conditions: read-out: IC50 (concentration to give half-maximal binding to the Mab)
Description: as §1

[6] = molecular target: Mab 6 (monoclonal antibody to hGH); assay: Binding of Mab 6 to hGH and hGH phagemid particles (ELISA); conditions: read-out: IC50 (concentration to give half-maximal binding to the Mab)
Description: as §1

[7] = molecular target: Mab 7 (monoclonal antibody to hGH); assay: Binding of Mab 7 to hGH and hGH phagemid particles (ELISA); conditions: read-out: IC50 (concentration to give half-maximal binding to the Mab)
Description: as §1

[8] = molecular target: Mab 8 (monoclonal antibody to hGH); assay: Binding of Mab 8 to hGH and hGH phagemid particles (ELISA); conditions: read-out: IC50 (concentration to give half-maximal binding to the Mab)
Description: as §1

[9] = molecular target: anti-β endorphin monoclonal antibody; conditions: cited from earlier work

Row | Substance | IC50 [1] [nM] | IC50 [2] [nM] | IC50 [3] [nM] | IC50 [4] [nM] | IC50 [5] [nM] | IC50 [6] [nM] | IC50 [7] [nM] | IC50 [8] [nM] | Kd [9] [nM]
1 | Human growth hormone [hGH] | 0.4 | 0.04 | 0.2 | 0.1 | 0.2 | 0.07 | 0.1 | 0.1 | 
2 | β-endorphin peptide: parent β-endorphin peptide sequence recognised by the anti-β endorphin monoclonal antibody |  |  |  |  |  |  |  |  | ~7
